± gives the expanded uncertainty stated by the source.
Assays:
[1] = mn = molality of the nth substance listed, in mol/kg; conditions: 100 kPa, Liquid; for speed of sound: Frequency=3 MHz, Single path-length method; for mass density: Vibrating tube method
[2] = 100 kPa, Liquid; for speed of sound: Frequency=3 MHz, Single path-length method; for mass density: Vibrating tube method

[Cl-].[Li+] [lithium chloride] + CCCCn1cc[n+](C)c1.F[B-](F)(F)F
[1]
Conditions	mass density, 288.15 K [kg/m3]	mass density, 293.15 K [kg/m3]	mass density, 298.15 K [kg/m3]	mass density, 303.15 K [kg/m3]	mass density, 308.15 K [kg/m3]	speed of sound, 288.15 K [m/s]	speed of sound, 293.15 K [m/s]	speed of sound, 298.15 K [m/s]	speed of sound, 303.15 K [m/s]	speed of sound, 308.15 K [m/s]
m1 = 0.0999	1211.1 ± 0.77	1207.56 ± 0.77	1204.03 ± 0.76	1200.53 ± 0.76	1196.98 ± 0.75	1595.5 ± 1.8	1583.3 ± 1.8	1571.2 ± 1.8	1559.4 ± 1.8	1547.7 ± 1.8
m1 = 0.1499	1212.17 ± 0.77	1208.61 ± 0.77	1205.08 ± 0.76	1201.61 ± 0.76	1198.07 ± 0.75	1597.7 ± 1.8	1585.4 ± 1.8	1573.3 ± 1.8	1561.4 ± 1.8	1549.7 ± 1.8
m1 = 0.2	1213.24 ± 0.78	1209.68 ± 0.77	1206.14 ± 0.76	1202.69 ± 0.76	1199.16 ± 0.75	1599.7 ± 1.8	1587.3 ± 1.8	1575.2 ± 1.8	1563.3 ± 1.8	1551.5 ± 1.8
m1 = 0.2501	1214.33 ± 0.78	1210.73 ± 0.77	1207.22 ± 0.77	1203.79 ± 0.76	1200.27 ± 0.76	1601.7 ± 1.8	1589.2 ± 1.8	–	1565.1 ± 1.8	1553.2 ± 1.8
m1 = 0.3003	1215.46 ± 0.78	1211.88 ± 0.77	1208.31 ± 0.77	1204.94 ± 0.76	1201.37 ± 0.76	1603.5 ± 1.8	1591 ± 1.8	1578.7 ± 1.8	1566.7 ± 1.8	1554.9 ± 1.8
m1 = 0.3498	1216.56 ± 0.78	1212.93 ± 0.77	1209.36 ± 0.77	1206.04 ± 0.76	1202.5 ± 0.76	1605.3 ± 1.8	1592.6 ± 1.8	1580.3 ± 1.8	1568.2 ± 1.8	1556.2 ± 1.8

CCCCn1cc[n+](C)c1.F[B-](F)(F)F [1-butyl-3-methylimidazolium tetrafluoroborate]
[2]
Conditions	mass density [kg/m3]	speed of sound [m/s]
288.15 K	1209.05 ± 0.77	1591 ± 1.8
293.15 K	1205.5 ± 0.77	1578.9 ± 1.8
298.15 K	1201.96 ± 0.76	1566.9 ± 1.8
303.15 K	1198.42 ± 0.76	1555.1 ± 1.8
308.15 K	1194.87 ± 0.75	1543.4 ± 1.8

CCCCn1cc[n+](C)c1.F[B-](F)(F)F [1-butyl-3-methylimidazolium tetrafluoroborate] + [Cl-].[Li+]
[1], m2 = 0
Conditions	mass density [kg/m3]	speed of sound [m/s]
288.15 K	1209.05 ± 0.77	1591 ± 1.8
293.15 K	1205.5 ± 0.77	1578.9 ± 1.8
298.15 K	1201.96 ± 0.76	1566.9 ± 1.8
303.15 K	1198.42 ± 0.76	1555.1 ± 1.8
308.15 K	1194.87 ± 0.75	1543.4 ± 1.8

— the NIST ThermoML archive (doi:10.1016/j.jct.2017.02.004)
